Experimental data: BindingDB's records for doi:10.1161/01.cir.102.23.2836 (Nih, 2000)
Values joined by “and” are separate entries in the source; they are usually repeats but may differ in a detail not shown here. Identical values can stand only once.

Key:
[1] = molecular target: T1, 5-hydroxytryptamine receptor 2C (Rattus norvegicus, UniProt P08909)
T1 sequence (P08909 whole entry): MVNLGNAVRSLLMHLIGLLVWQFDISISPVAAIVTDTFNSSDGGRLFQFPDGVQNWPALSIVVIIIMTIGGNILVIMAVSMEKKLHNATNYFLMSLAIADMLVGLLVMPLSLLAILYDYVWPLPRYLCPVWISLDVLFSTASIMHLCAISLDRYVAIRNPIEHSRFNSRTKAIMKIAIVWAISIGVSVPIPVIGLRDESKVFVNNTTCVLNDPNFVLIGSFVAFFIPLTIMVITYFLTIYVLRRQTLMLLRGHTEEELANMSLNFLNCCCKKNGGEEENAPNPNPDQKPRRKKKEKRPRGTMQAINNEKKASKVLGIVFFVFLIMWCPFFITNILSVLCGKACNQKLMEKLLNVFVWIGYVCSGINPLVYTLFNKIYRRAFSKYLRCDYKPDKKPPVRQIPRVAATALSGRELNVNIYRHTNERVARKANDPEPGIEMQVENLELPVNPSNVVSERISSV

[2] = molecular target: 5-hydroxytryptamine receptor 2B (Homo sapiens, UniProt P41595)
Sequence of 5-hydroxytryptamine receptor 2B (P41595 whole entry): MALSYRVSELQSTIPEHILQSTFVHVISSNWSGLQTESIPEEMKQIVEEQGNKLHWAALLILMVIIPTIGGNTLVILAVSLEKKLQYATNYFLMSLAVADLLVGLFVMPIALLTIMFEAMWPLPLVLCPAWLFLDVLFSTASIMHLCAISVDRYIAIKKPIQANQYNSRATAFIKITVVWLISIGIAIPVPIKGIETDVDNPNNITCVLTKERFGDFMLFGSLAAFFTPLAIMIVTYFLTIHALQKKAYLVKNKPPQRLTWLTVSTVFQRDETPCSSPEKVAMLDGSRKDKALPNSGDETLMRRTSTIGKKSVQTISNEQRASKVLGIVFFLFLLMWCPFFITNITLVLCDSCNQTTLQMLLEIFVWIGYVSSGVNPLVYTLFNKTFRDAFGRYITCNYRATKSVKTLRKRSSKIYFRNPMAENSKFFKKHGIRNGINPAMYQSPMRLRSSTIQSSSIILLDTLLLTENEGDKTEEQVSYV

SMILES	Ki [1]	Ki [2]
CCNC(C)Cc1cccc(C(F)(F)F)c1 (stereo not drawn) [NSC_3337]	3180 nM and 6250 nM and 3420 nM	–
C[C@H](N)Cc1cccc(C(F)(F)F)c1 [Norfenfluramine (+)]	557 nM and 324 nM and 814 nM	52.1 nM and 11.2 nM and 47.8 nM
CN1C[C@H](C(=O)N[C@]2(C)O[C@@]3(O)[C@@H]4CCCN4C(=O)[C@H](Cc4ccccc4)N3C2=O)C=C2c3cccc4[nH]cc(c34)C[C@H]21 [12'-hydroxy-2'-methyl-5'alpha-(phenylmethyl)ergotaman-3',6',18-trione]	12 nM	3 nM
CC(C)(N)Cc1ccccc1 [2-methyl-1-phenylpropan-2-amine]	> 10000 nM	> 10000 nM
CC[C@@H](CO)NC(=O)[C@@H]1C=C2c3cccc4[nH]cc(c34)C[C@H]2N(C)C1 [Methylergometrine]	–	0.49 nM
CC[C@@H](CO)NC(=O)[C@@H]1C=C2c3cccc4c3c(cn4C)C[C@H]2N(C)C1	1.8 nM	–
NCC[C@H](Oc1ccc(C(F)(F)F)cc1)c1ccccc1 [NORFLUOXETINE]	286 nM	5060 nM
O=c1n(CCCN2CCN(c3cccc(Cl)c3)CC2)nc2ccccn12 [2-{3-[4-(3-chlorophenyl)piperazin-1-yl]propyl}[1,2,4]triazolo[4,3-a]pyridin-3(2H)-one]	402 nM	–
Clc1cccc(N2CCNCC2)c1 [mCPP]	59 nM	–
